Numbered stars: 1 amine (or outer) side, 2 acyl side, 3 side chain; on linkers, the order of the positions; unused ones are H or OH. Square brackets hold non-standard residues; d marks the D form. Peptide text beside a SMILES is read from it. * marks the point of attachment. Heptanoyl(3-oxo-2,2,4S,6-Me) = CC(C)C[C@H](C)C(=O)C(C)(C)C(=O)*; NH((S)-1-NMe2-3-Me-but-2-yl) = CC(C)[C@@H](CN(C)C)N*; Ile(3R-OH) = CC[C@@](C)(O)[C@H](N)C(=O)O; dVal(3-OH) = CC(C)(O)[C@@H](N)C(=O)O; d(aIle) = CC[C@H](C)[C@@H](N)C(=O)O; Val(3-OH) = CC(C)(O)[C@H](N)C(=O)O; X1 = CCC(CC)=C(N[*:1])C(=O)[*:2]; ΔVal = CC(C)=C(N)C(=O)O
How the values were obtained:
[1] = system: A375; assay: cells; conditions: read-out: Aver IC50, A375; A375 (Malignant Melanoma); MTS, 72 hours, 37 °C, 5% CO2, 384-well; n>2 independent studies (in duplicate)
Method: (§1) The antiproliferative activity profiles of 1a, its full-length analogs 2a and 2b, and its partial structures (23, 24, 26, and 30) were determined by in vitro screening in 72 hours MTS cell proliferation assays against a panel of 18 different human cancer cell lines. […] The three peptides were also evaluated for their antiproliferative activity against the lung fibroblast MRC5 cell line.
(§2) Cells (40 µ L) are added into individual wells of a 384-well black/clear bottom plate on day zero at concentrations enabling continuous log growth over the course of the assay. On day one, compounds (or DMSO) are transferred using an ATS-liquid handler (100 nL per well) to individual wells containing cells and the cells are treated for 72 hours (37 °C, 5% CO 2) prior to measuring proliferation using MTS reagent following manufacturer’s instructions. Net OD values are determined by subtracting the average OD values of cells (measured on day 1, T = 0) from average total OD value of cells (measured on day 4, T = 72h). IC 50 values are calculated using proprietary software (IC 50 values normalized against all compounds). Results represent n>2 independent studies (in duplicate).
(§3) Table S1. Antiproliferative Data of Compounds 1a, 2a, 2b, 23, 24, 26, and 30.
(§4) Table S2. Human Cell Line Descriptions.
(§5) Human Cell Line* Description
(§6) *All cells were obtained from ATCC and are authenticated

[2] = system: A549; assay: cells; conditions: read-out: Aver IC50, A549; A549 (Lung - NSCLC); MTS, 72 hours, 37 °C, 5% CO2, 384-well; n>2 independent studies (in duplicate)
Method: as §1, §2, §3, §4, §5, §6

[3] = system: BXPC3; assay: cells; conditions: read-out: Aver IC50, BXPC3; BXPC3 (Pancreatic - Adenocarcinoma); MTS, 72 hours, 37 °C, 5% CO2, 384-well; n>2 independent studies (in duplicate)
Method: as §1, §2, §3, §4, §5, §6

[4] = system: CALU6; assay: cells; conditions: read-out: Aver IC50, CALU6; CALU6 (Lung - Adenocarcinoma); MTS, 72 hours, 37 °C, 5% CO2, 384-well; n>2 independent studies (in duplicate)
Method: as §1, §2, §3, §4, §5, §6

[5] = system: COLO678; assay: cells; conditions: read-out: Aver IC50, COLO678; COLO678 (Colon Carcinoma); MTS, 72 hours, 37 °C, 5% CO2, 384-well; n>2 independent studies (in duplicate)
Method: as §1, §2, §3, §4, §5, §6

[6] = system: HCT116; assay: cells; conditions: read-out: Aver IC50, HCT116; HCT116 (Colon Carcinoma); MTS, 72 hours, 37 °C, 5% CO2, 384-well; n>2 independent studies (in duplicate)
Method: as §1, §2, §3, §4, §5, §6

[7] = system: HL60; assay: cells; conditions: read-out: Aver IC50, HL60; HL60 (Leukema - Promyelocytic); MTS, 72 hours, 37 °C, 5% CO2, 384-well; n>2 independent studies (in duplicate)
Method: as §1, §2, §3, §4, §5, §6

[8] = system: HT29; assay: cells; conditions: read-out: Aver IC50, HT29; HT29 (Colon Carcinoma); MTS, 72 hours, 37 °C, 5% CO2, 384-well; n>2 independent studies (in duplicate)
Method: as §1, §2, §3, §4, §5, §6

[9] = system: JURKAT; assay: cells; conditions: read-out: Aver IC50, JURKAT; JURKAT (acute T-cell leukemia); MTS, 72 hours, 37 °C, 5% CO2, 384-well; n>2 independent studies (in duplicate)
Method: as §1, §2, §3, §4, §5, §6

[10] = system: MV411; assay: cells; conditions: read-out: Aver IC50, MV411; MV411 (Acute Myeloid Leukemia); MTS, 72 hours, 37 °C, 5% CO2, 384-well; n>2 independent studies (in duplicate)
Method: as §1, §2, §3, §4, §5, §6

[11] = system: NCIH1048; assay: cells; conditions: read-out: Aver IC50, NCIH1048; NCIH1048 (Lung - SCLC); MTS, 72 hours, 37 °C, 5% CO2, 384-well; n>2 independent studies (in duplicate)
Method: as §1, §2, §3, §4, §5, §6

[12] = system: OVCAR3; assay: cells; conditions: read-out: Aver IC50, OVCAR3; OVCAR3 (Ovary - Adenocarcinoma); MTS, 72 hours, 37 °C, 5% CO2, 384-well; n>2 independent studies (in duplicate)
Method: as §1, §2, §3, §4, §5, §6

[13] = system: PANC1005; assay: cells; conditions: read-out: Aver IC50, PANC1005; PANC1005 (Pancreatic - Adenocarcinoma); MTS, 72 hours, 37 °C, 5% CO2, 384-well; n>2 independent studies (in duplicate)
Method: as §1, §2, §3, §4, §5, §6

[14] = system: RAMOS; assay: cells; conditions: read-out: Aver IC50, RAMOS; RAMOS (Burkitt's lymphoma); MTS, 72 hours, 37 °C, 5% CO2, 384-well; n>2 independent studies (in duplicate)
Method: as §1, §2, §3, §4, §5, §6

[15] = system: SNUC1; assay: cells; conditions: read-out: Aver IC50, SNUC1; SNUC1 (Colon Carcinoma); MTS, 72 hours, 37 °C, 5% CO2, 384-well; n>2 independent studies (in duplicate)
Method: as §1, §2, §3, §4, §5, §6

[16] = system: THP1; assay: cells; conditions: read-out: Aver IC50, THP1; THP1 (Acute Monocytic Leukemia); MTS, 72 hours, 37 °C, 5% CO2, 384-well; n>2 independent studies (in duplicate)
Method: as §1, §2, §3, §4, §5, §6

[17] = system: U937; assay: cells; conditions: read-out: Aver IC50, U937; U937 (Pro-monocytic, Human Myeloid Leukemia); MTS, 72 hours, 37 °C, 5% CO2, 384-well; n>2 independent studies (in duplicate)
Method: as §1, §2, §3, §4, §5, §6

[18] = system: lung fibroblast MRC5 cell line; assay: cells; conditions: read-out: Aver IC50, MRC5; MRC5 (Lung Fibroblast, noncancerous); MTS, 72 hours, 37 °C, 5% CO2, 384-well; n>2 independent studies (in duplicate)
Method: as §1, §2, §3, §4, §5, §6

[19] = system: MCF7; conditions: MCF7 (Breast Carcinoma), MTS, 72 hours, 37 °C, 5% CO2, 384-well, n>2 independent studies (in duplicate); for IC50: read-out: Aver IC50, MCF7
Method: as §1, §2, §3, §4, §5, §6

[20] = system: P388 murine leukemia cells; conditions: cited from earlier work
Excerpt: The linear peptide yaku'amide A (1a, Fig. 1) was isolated by Matsunaga and co-workers from the deep-sea sponge Ceratopsion sp.[1] It contains several unusual β-tert-hydroxy amino acids (β-OHAAs) and tetrasubstituted dehydroamino acids (ΔAAs).

[21] = system: panel of 18 different human cancer cell lines; assay: 72 h MTS cell proliferation assays, panel of cancer cell lines; assay type: cell-based; conditions: against most of the cell lines, ca.
Method: as §1, §2, §3, §4, §5, §6

| Compound | IC50 [1] | IC50 [2] | IC50 [3] | IC50 [4] | IC50 [5] | IC50 [6] | IC50 [7] | IC50 [8] | IC50 [9] | IC50 [10] | IC50 [11] | IC50 [12] | IC50 [13] | IC50 [14] | IC50 [15] | IC50 [16] | IC50 [17] | IC50 [18] | IC50 [19] | further results |
| --- | --- | --- | --- | --- | --- | --- | --- | --- | --- | --- | --- | --- | --- | --- | --- | --- | --- | --- | --- | --- |
| yaku'amide A [Compound 1a, reference compound] | 2140 nM | 108 nM | 3820 nM | 2220 nM | 2690 nM | 1740 nM | 578 nM | 2890 nM | 4950 nM | 119 nM | 3110 nM | 227 nM | 2830 nM | 975 nM | 129 nM | 9290 nM | 1210 nM | 14500 nM | 125 nM | Aver IC50, MCF7 [19]: potent; IC50, growth inhibition of P388 murine leukemia cells [20]: 0.014 µg/mL |
| CCC(CC)=C(NC(=O)CNC(=O)C(NC(=O)[C@@H](NC(=O)C(C)(C)C(=O)[C@@H](C)CC(C)C)[C@](C)(O)CC)=C(C)C)C(=O)N[C@@H](C(=O)NCCN(C)C)C(C)C [Compound 26] | > 25000 nM | > 25000 nM | > 25000 nM | > 25000 nM | > 25000 nM | > 25000 nM | > 25000 nM | > 25000 nM | > 25000 nM | > 25000 nM | > 25000 nM | > 25000 nM | > 25000 nM | > 25000 nM | > 25000 nM | > 25000 nM | > 25000 nM | > 25000 nM | 6340 nM | – |
| CCC(CC)=C(NC(=O)CNC(=O)C(NC(=O)[C@@H](NC(=O)C(C)(C)C(=O)[C@@H](C)CC(C)C)[C@](C)(O)CC)=C(C)C)C(=O)N[C@@H](C(=O)N[C@@H](C(=O)N[C@@H](C(=O)N[C@H](C(=O)NC(C(=O)N[C@H](C)C(=O)N[C@@H](C(=O)N[C@H](C(=O)NC(C(=O)N[C@H](CN(C)C)C(C)C)=C(C)C)C(C)C)C(C)C)=C(C)C)C(C)(C)O)C(C)(C)O)[C@@H](C)CC)C(C)C [Compound 2b] ({Heptanoyl(3-oxo-2,2,4S,6-Me)}-[Ile(3R-OH)][ΔVal]G[X1][dV][d(aIle)][dVal(3-OH)][Val(3-OH)][ΔVal][dA][dV]V[ΔVal]-{NH((S)-1-NMe2-3-Me-but-2-yl)}) | 254 nM | 249 nM | 9310 nM | 1000 nM | 6500 nM | 4260 nM | 465 nM | 5250 nM | 13400 nM | 48.8 nM | 2370 nM | 186 nM | 8810 nM | 1200 nM | 58.3 nM | 9690 nM | 947 nM | 17500 nM | 13000 nM | – |
| CCC(CC)=C(NC(=O)[C@@H](NC(=O)C(C)(C)C(=O)[C@@H](C)CC(C)C)[C@](C)(O)CC)C(=O)NCC(=O)NC(C(=O)N[C@@H](C(=O)N[C@@H](C(=O)N[C@@H](C(=O)N[C@H](C(=O)NC(C(=O)N[C@H](C)C(=O)N[C@@H](C(=O)N[C@H](C(=O)NC(C(=O)N[C@H](CN(C)C)C(C)C)=C(C)C)C(C)C)C(C)C)=C(C)C)C(C)(C)O)C(C)(C)O)[C@@H](C)CC)C(C)C)=C(C)C [Compound 2a] ({Heptanoyl(3-oxo-2,2,4S,6-Me)}-[Ile(3R-OH)][X1]G[ΔVal][dV][d(aIle)][dVal(3-OH)][Val(3-OH)][ΔVal][dA][dV]V[ΔVal]-{NH((S)-1-NMe2-3-Me-but-2-yl)}) | 1510 nM | 86.5 nM | 3900 nM | 578 nM | 2010 nM | 1130 nM | 370 nM | 2270 nM | 4210 nM | 20.8 nM | 1310 nM | 81.4 nM | 1970 nM | 362 nM | 34.4 nM | 9190 nM | 435 nM | 5470 nM | 13000 nM | Increased potency compared to 2b [21]: 2–4 fold |
